Assays:
Pseudomonas aeruginosa [1] = assay: Antimicrobial activity against verona integron-encoded metallo-beta-lactamase-4 producing Pseudomonas aeruginosa K34-73 assessed as reduction in bacterial growth incubated for 48 hrs by microdilution method; format: functional
Escherichia coli [2] = assay: Antimicrobial activity against Escherichia coli ATCC 25922 assessed as reduction in bacterial growth incubated for 48 hrs by microdilution susceptibility test; format: functional
Enterococcus faecium [3] = assay: Antimicrobial activity against extended spectrum-lactamase-carbapenemas producing Enterococcus faecium strain 50673722 assessed as reduction in bacterial growth incubated for 48 hrs by microdilution method; format: functional
Pseudomonas aeruginosa [4] = assay: Antimicrobial activity against imipenem-type carbapenemase-14 producing Pseudomonas aeruginosa K44-24 assessed as reduction in bacterial growth incubated for 48 hrs by microdilution method; format: functional
Staphylococcus aureus [5] = assay: Antimicrobial activity against extended spectrum-lactamase-carbapenemas producing Staphylococcus aureus N315 assessed as reduction in bacterial growth incubated for 48 hrs by microdilution method; format: functional
[6] = Hemolytic activity in human erythrocytes incubated for 1 hr by microplate reader; format: functional, cell-based; settings: erythrocyte
Escherichia coli [7] = assay: Antimicrobial activity against New Delhi metallo-beta lactamase-1 producing Escherichia coli 50676002 assessed as reduction in bacterial growth incubated for 48 hrs by microdilution method; format: functional
Acinetobacter baumannii [8] = assay: Antimicrobial activity against oxacillinase-58 producing Acinetobacter baumannii K12-21 assessed as reduction in bacterial growth incubated for 48 hrs by microdilution method; format: functional
Escherichia coli [9] = assay: Antimicrobial activity against verona integron-encoded metallo-beta-lactamase-29-producing Escherichia coli 50639799 assessed as reduction in bacterial growth incubated for 48 hrs by microdilution method; format: functional
[10] = Antimicrobial activity against New Delhi metallo-beta lactamase-1 Klebsiella pneumoniae K66-45 assessed as reduction in bacterial growth incubated for 48 hrs by microdilution method; format: functional
MRC5 = assay: Cytotoxicity against human MRC5 cells assessed as reduction in cell viability incubated for 24 hrs by colorimetric tetrazolium assay; format: functional, cell-based; settings: MRC5, 24 h
Acinetobacter baumannii [11] = assay: Antimicrobial activity against oxacillinase-23 producing Acinetobacter baumannii K47-42 assessed as reduction in bacterial growth incubated for 48 hrs by microdilution method; format: functional
Acinetobacter baumannii [12] = assay: Antimicrobial activity against oxacillinase-23 producing Acinetobacter baumannii K63-58 assessed as reduction in bacterial growth incubated for 48 hrs by microdilution method; format: functional
[13] = Antimicrobial activity against verona integron-encoded metallo-beta-lactamase -1 producing Klebsiella pneumoniae 50667959 assessed as reduction in bacterial growth incubated for 48 hrs by microdilution method; format: functional
[14] = Antimicrobial activity against carbapenemase producing Klebsiella pneumoniae K47-25 assessed as reduction in bacterial growth incubated for 48 hrs by microdilution method; format: functional
Escherichia coli [15] = assay: Antimicrobial activity against New Delhi metallo-beta lactamase-1 producing Escherichia coli 50739822 assessed as reduction in bacterial growth incubated for 48 hrs by microdilution method; format: functional
Staphylococcus aureus [16] = assay: Antimicrobial activity against Staphylococcus aureus ATCC 9144 assessed as reduction in bacterial growth incubated for 48 hrs by microdilution susceptibility test; format: functional
Enterococcus faecium [17] = assay: Antimicrobial activity against extended spectrum-lactamase-carbapenemas producing Enterococcus faecium strain K36-18 assessed as reduction in bacterial growth incubated for 48 hrs by microdilution method; format: functional
Staphylococcus aureus [18] = assay: Antimicrobial activity against extended spectrum-lactamase-carbapenemas producing Staphylococcus aureus strain 85/2082 assessed as reduction in bacterial growth incubated for 48 hrs by microdilution method; format: functional
Staphylococcus aureus [19] = assay: Antimicrobial activity against extended spectrum-lactamase-carbapenemas producing Staphylococcus aureus strain WIS assessed as reduction in bacterial growth incubated for 48 hrs by microdilution method; format: functional
Pseudomonas aeruginosa [20] = assay: Antimicrobial activity against verona integron-encoded metallo-beta-lactamase producing Pseudomonas aeruginosa 50692520 assessed as reduction in bacterial growth incubated for 48 hrs by microdilution method; format: functional
[21] = test system: Corynebacterium glutamicum; assay: Antimicrobial activity against Corynebacterium glutamicum ATCC 13032 assessed as reduction in bacterial growth incubated for 48 hrs by microdilution susceptibility test; format: functional
Pseudomonas aeruginosa [22] = assay: Antimicrobial activity against New Delhi metallo-beta lactamase-1 producing Pseudomonas aeruginosa 50692172 assessed as reduction in bacterial growth incubated for 48 hrs by microdilution method; format: functional
HepG2 = assay: Cytotoxicity against human HepG2 cells assessed as reduction in cell viability incubated for 24 hrs by colorimetric tetrazolium assay; format: functional, cell-based; settings: HepG2, 24 h
Escherichia coli [23] = assay: Antimicrobial activity against oxacillinase-producing Escherichia coli 50579417 assessed as reduction in bacterial growth incubated for 48 hrs by microdilution method; format: functional
[24] = Antimicrobial activity against New Delhi metallo-beta lactamase-1 and oxacillinase -181 producing Klebsiella pneumoniae 50531633 assessed as reduction in bacterial growth incubated for 48 hrs by microdilution method; format: functional
Enterococcus faecium [25] = assay: Antimicrobial activity against extended spectrum-lactamase-carbapenemas producing Enterococcus faecium strain 50901530 assessed as reduction in bacterial growth incubated for 48 hrs by microdilution method; format: functional
Staphylococcus aureus [26] = assay: Antimicrobial activity against extended spectrum-lactamase-carbapenemas producing Staphylococcus aureus strain IHT 99040 assessed as reduction in bacterial growth incubated for 48 hrs by microdilution method; format: functional
Enterococcus faecium [27] = assay: Antimicrobial activity against extended spectrum-lactamase-carbapenemas producing Enterococcus faecium strain 50758899 assessed as reduction in bacterial growth incubated for 48 hrs by microdilution method; format: functional
Enterococcus faecium [28] = assay: Antimicrobial activity against extended spectrum-lactamase-carbapenemas producing Enterococcus faecium strain TUH.50-22 assessed as reduction in bacterial growth incubated for 48 hrs by microdilution method; format: functional
Staphylococcus aureus [29] = assay: Antimicrobial activity against extended spectrum-lactamase-carbapenemas producing Staphylococcus aureus NCTC 10442 assessed as reduction in bacterial growth incubated for 48 hrs by microdilution method; format: functional
Escherichia coli [30] = assay: Antimicrobial activity against imipenem-type carbapenemase-26 producing Escherichia coli 50857972 assessed as reduction in bacterial growth incubated for 48 hrs by microdilution method; format: functional
Acinetobacter baumannii [31] = assay: Antimicrobial activity against oxacillinase-23 producing Acinetobacter baumannii K44-35 assessed as reduction in bacterial growth incubated for 48 hrs by microdilution method; format: functional
[32] = Antimicrobial activity against oxacillinase-245 producing Klebsiella pneumoniae 50625602 assessed as reduction in bacterial growth incubated for 48 hrs by microdilution method; format: functional
Pseudomonas aeruginosa [33] = assay: Antimicrobial activity against verona integron-encoded metallo-beta-lactamase-2 producing Pseudomonas aeruginosa K34-7 assessed as reduction in bacterial growth incubated for 48 hrs by microdilution method; format: functional
Acinetobacter baumannii [34] = assay: Antimicrobial activity against oxacillinase-24 producing Acinetobacter baumannii K55-13 assessed as reduction in bacterial growth incubated for 48 hrs by microdilution method; format: functional
Pseudomonas aeruginosa [35] = assay: Antimicrobial activity against Pseudomonas aeruginosa PAO1 assessed as reduction in bacterial growth incubated for 48 hrs by microdilution susceptibility test; format: functional

Row | Compound | MIC (Pseudomonas aeruginosa [1]) [µg/mL] | MIC (Escherichia coli [2]) [µg/mL] | MIC (Enterococcus faecium [3]) [µg/mL] | MIC (Pseudomonas aeruginosa [4]) [µg/mL] | MIC (Staphylococcus aureus [5]) [µg/mL] | EC50 [6] [µg/mL] | MIC (Escherichia coli [7]) [µg/mL] | MIC (Acinetobacter baumannii [8]) [µg/mL] | MIC (Escherichia coli [9]) [µg/mL] | MIC [10] [µg/mL] | IC50 (MRC5) [µg/mL] | MIC (Acinetobacter baumannii [11]) [µg/mL] | MIC (Acinetobacter baumannii [12]) [µg/mL] | MIC [13] [µg/mL] | MIC [14] [µg/mL] | MIC (Escherichia coli [15]) [µg/mL] | MIC (Staphylococcus aureus [16]) [µg/mL] | MIC (Enterococcus faecium [17]) [µg/mL] | MIC (Staphylococcus aureus [18]) [µg/mL] | MIC (Staphylococcus aureus [19]) [µg/mL] | further results
1 | N=C(N)NCCCCN1C(=O)N(CCCCNC(=N)N)C(=O)C(Cc2ccc(C(F)(F)F)cc2)(Cc2ccc(C(F)(F)F)cc2)C1=O.O=C(O)C(F)(F)F.O=C(O)C(F)(F)F | > 32 | 8 | 32 | > 32 | 4 | > 449 | 32 | > 32 | 16 | > 32 | 74 | > 32 | > 32 | > 32 | > 32 | 32 | 2 | 32 | 4 | 4 | MIC (Pseudomonas aeruginosa [20]): > 32 µg/mL; MIC [21]: 0.25 µg/mL; MIC (Pseudomonas aeruginosa [22]): > 32 µg/mL; IC50 (HepG2): 104 µg/mL; MIC (Escherichia coli [23]): 32 µg/mL; MIC [24]: > 32 µg/mL; MIC (Enterococcus faecium [25]): 8 µg/mL; MIC (Staphylococcus aureus [26]): 8 µg/mL; MIC (Enterococcus faecium [27]): > 32 µg/mL; MIC (Enterococcus faecium [28]): 32 µg/mL; MIC (Staphylococcus aureus [29]): 4 µg/mL; MIC (Escherichia coli [30]): 16 µg/mL; MIC (Acinetobacter baumannii [31]): > 32 µg/mL; MIC [32]: > 32 µg/mL; MIC (Pseudomonas aeruginosa [33]): > 32 µg/mL; MIC (Acinetobacter baumannii [34]): > 32 µg/mL; MIC (Pseudomonas aeruginosa [35]): 64 µg/mL
2 | N=C(N)NCCCCN1C(=O)N(CCCCNC(=N)N)C(=O)C(Cc2ccc3ccccc3c2)(Cc2ccc3ccccc3c2)C1=O.O=C(O)C(F)(F)F.O=C(O)C(F)(F)F | 32 | 1 | 16 | 32 | 8 | 133 | 8 | 32 | 8 | 16 | 30 | 32 | 32 | 16 | 16 | 8 | 1 | 16 | 8 | 8 | MIC (Pseudomonas aeruginosa [20]): 32 µg/mL; MIC [21]: 0.25 µg/mL; MIC (Pseudomonas aeruginosa [22]): 32 µg/mL; IC50 (HepG2): 59 µg/mL; MIC (Escherichia coli [23]): 16 µg/mL; MIC [24]: 16 µg/mL; MIC (Enterococcus faecium [25]): 8 µg/mL; MIC (Staphylococcus aureus [26]): 8 µg/mL; MIC (Enterococcus faecium [27]): 16 µg/mL; MIC (Enterococcus faecium [28]): 8 µg/mL; MIC (Staphylococcus aureus [29]): 8 µg/mL; MIC (Escherichia coli [30]): 8 µg/mL; MIC (Acinetobacter baumannii [31]): 32 µg/mL; MIC [32]: 16 µg/mL; MIC (Pseudomonas aeruginosa [33]): 32 µg/mL; MIC (Acinetobacter baumannii [34]): 32 µg/mL; MIC (Pseudomonas aeruginosa [35]): 8 µg/mL

Source: ChEMBL document CHEMBL5055633, “Amphipathic Barbiturates as Mimics of Antimicrobial Peptides and the Marine Natural Products Eusynstyelamides with Activity against Multi-resistant Clinical Isolates” (J Med Chem, 2021)
